Laboratory results reported in US10058566B2, “Sulfated polygulonic acid polysaccharide or pharmaceutical salt thereof, preparation method therefor and use thereof” (SHANGHAI INSTITUTE OF MATERIA MEDICA CHINESE ACADEMY OF …, priority 2013, dated 2018).

Columns and labels:
[1] = tested on: lung metastasis of human breast cancer MDA-MB-435 orthotopic xenografts; assay: Lung metastasis of human breast cancer MDA-MB-435 orthotopic xenografts; format: in vivo, nude mice (BALB/cA); conditions: 5 mg/kg, intravenous injection once per week for 7 continuous weeks
Procedure: (§1) Human breast cancer MDA-MB-435 cells (from American Type Culture Collection, ATCC, Rockville, Md., USA) in an exponential growth phase at a concentration of 2.5×10^7 cells/ml were inoculated into the second left mammary fat pad of 4-5-week old female nude mice (BALB/cA, provided by Shanghai Institute of Materia Medica, Chinese Academy of Sciences). When the tumors were grown to the size of 100-200 mm^3, the animals were evenly divided according tumor volumes into a negative control group, a doxorubicin injection (Adriamycin, ADM) treatment group (positive control group), and 5 mg/kg and 20 mg/kg PGAS treatment groups (PGAS experimental groups), 20 mice/group. […] In the experiments, a vernier caliper was used to measure the diameter of tumors twice a week, and the tumor volume (V) was calculated following the formula below: V=½×a×b^2
The animals were sacrificed 1 week after discontinuation of dosing. […] The number of lung metastasis nodes per lung was observed and recorded under a dissecting microscope. […] A part of lungs and orthotopic tumor tissues were fixed in 10% formalin, and angiogenesis in tumor tissues was determined by H&E staining and immunohistochemistry.
(§2) At this point of time, the animals are sacrificed and subjected to anti-tumor effect evaluation. […] Further, the effect of PGAS on angiogenesis in vivo was evaluated by immunohistochemical staining.

[2] = tested on: human breast cancer MDA-MB-435 orthotopic xenografts; assay: Growth of human breast cancer MDA-MB-435 orthotopic xenografts in nude mice; format: in vivo, nude mice (BALB/cA); conditions: 5 mg/kg, intravenous injection once per week for 7 continuous weeks
Procedure: as §1
in which, a and b represent the length and the width of tumors, respectively. The relative tumor volume (RTV) was calculated based on the measured results, using the calculation formula: RTVt=Vt/Vo; in which, V0 is the measured tumor volume when animals were divided to different dosing (i.e. d0), and Vt is the tumor volume on the day of measurement. […]
as §2

Which “inhibition rate on lung metastasis” value [1] does the source give for COc1cccc2c1C(=O)c1c(O)c3c(c(O)c1C2=O)C[C@@](O)(C(=O)CO)C[C@@H]3O[C@H]1C[C@H](N)[C@H](O)[C@H](C)O1 [ADM, Doxorubicin] here?
The value was 89.8%.

And the “relative tumor proliferation rate T/C” value [2]?
Its value is 21.8%.
